The source of these data is PubChem BioAssay (NCI).

SMILES strings stand for the structures.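 Test compounds were applied to cells in 96-well plates for 48 hours at 5 doses. TGI is the concentration that stops growth completely.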

Some test systems named below: EKVX NSCLC; SF-539 CNS; CAKI-1 renal; SN12C renal; MALME-3M melanoma; K-562 leukemia; SNB-19 CNS; KM12 colon; SNB-75 CNS; M14 melanoma.
Common to all, as to assay: NCI-60 cell line screen, 48 h

As to `CCCCCCCCCCCCCCCCCCOCC(COP(=O)([O-])OCC[N+](C)(C)C)OC` (stereo not given), the TGI with EKVX NSCLC is 70.3 µM; in the test on SF-539 CNS it was greater than 70.2 µM; with CAKI-1 renal, 44.3 µM; with SN12C renal it was 34.6 µM; with MALME-3M melanoma, 46.8 µM; in the test on K-562 leukemia it was 75.2 µM. Moreover, the TGI was 47.1 µM in the test on SNB-19 CNS, 10.4 µM in the test on KM12 colon, 37.2 µM with SNB-75 CNS and greater than 63.5 µM in the test on M14 melanoma.
As for `c1ccc(C(CCN2CC3CCC(CC3)C2)c2ccccc2)cc1`, the TGI was greater than 100 µM in the test with EKVX NSCLC; 29.5 µM with SF-539 CNS; greater than 100 µM with CAKI-1 renal; 84.7 µM in the test with SN12C renal; 29.9 µM with MALME-3M melanoma; 47.7 µM in the test on K-562 leukemia. For the same molecule, the TGI in the test with SNB-19 CNS is greater than 100 µM; in the test with KM12 colon it was 87.4 µM; in the test with SNB-75 CNS it was 85.9 µM; in the test with M14 melanoma it was 27.3 µM.
In the case of `O=c1cc(N=Nc2ccc(Cl)cc2)[nH]c(=O)[nH]1`, the TGI was 8.5 µM with EKVX NSCLC; 10.2 µM in the test with SF-539 CNS; 4.12 µM in the test with CAKI-1 renal; 9.45 µM in the test on SN12C renal; 8.71 µM in the test on MALME-3M melanoma; greater than 31.6 µM with K-562 leukemia. For the same molecule, the TGI with SNB-19 CNS was 25.2 µM; in the test on KM12 colon it was 10.6 µM; in the test on SNB-75 CNS, 22.1 µM; in the test with M14 melanoma, 9.19 µM.
For the molecule `Nn1c(Cc2ccccc2)n[nH]c1=O`, the TGI in the test on EKVX NSCLC, with SF-539 CNS, in the test with CAKI-1 renal, in the test on SN12C renal, with MALME-3M melanoma and in the test on K-562 leukemia was greater than 100 µM in each case. Also, the TGI in the test with SNB-19 CNS, with KM12 colon, in the test with SNB-75 CNS and with M14 melanoma was greater than 100 µM in each case.
On to `CCc1nc2ccc(C(F)(F)F)cc2[nH]c1=O`, for which the TGI with EKVX NSCLC, with SF-539 CNS, in the test on CAKI-1 renal, in the test on SN12C renal, in the test on MALME-3M melanoma and in the test with K-562 leukemia was greater than 100 µM throughout. Moreover, the TGI in the test with SNB-19 CNS, in the test on KM12 colon, with SNB-75 CNS and with M14 melanoma was greater than 100 µM each time.
On to `CCN(CC)C(=O)N1CN(c2ccccc2)C2(CCN(CCCSc3ccc(F)cc3)CC2)C1=O`, for which the TGI was 33.6 µM with EKVX NSCLC; 20.7 µM in the test with SF-539 CNS; greater than 100 µM in the test with CAKI-1 renal; 39.8 µM with SN12C renal; 29.6 µM in the test on MALME-3M melanoma; 27.4 µM in the test on K-562 leukemia. Besides, the TGI in the test with SNB-19 CNS was greater than 100 µM; in the test on KM12 colon, 25.3 µM; in the test on SNB-75 CNS, 50.3 µM; with M14 melanoma, 15.3 µM.
Take `CCN(CC)CCCC(C)NC(=O)c1ccc2c(c1)C(=O)c1ccccc1C2=O` (stereo not given): the TGI is 55.8 µM in the test with EKVX NSCLC; 36 µM in the test on SF-539 CNS; 79.3 µM with CAKI-1 renal; 37.6 µM in the test with SN12C renal; 27.6 µM in the test with MALME-3M melanoma; 48.4 µM in the test with K-562 leukemia. Further, the TGI with SNB-19 CNS was 55.3 µM; in the test with KM12 colon it was 35.7 µM; with SNB-75 CNS, greater than 86.9 µM; with M14 melanoma, 33.3 µM.
On to `Oc1ccc(O)c(CNc2ccccc2)c1`, for which the TGI was 43.4 µM with EKVX NSCLC; 15.2 µM in the test on SF-539 CNS; 23.1 µM in the test on CAKI-1 renal; 29.2 µM in the test on SN12C renal; 31.9 µM in the test with MALME-3M melanoma; greater than 100 µM in the test on K-562 leukemia. Also, the TGI in the test with SNB-19 CNS is 45.1 µM; in the test with KM12 colon, 42.1 µM; in the test with SNB-75 CNS it was greater than 100 µM; in the test on M14 melanoma, 33.7 µM.
With `CCOC(=O)C(C(=O)OCC)=C1NC2(c3ccccc3Nc3ccc(C)cc32)C(C(=O)OC)S1` (stereo not given), the TGI in the test on EKVX NSCLC was 80.9 µM; in the test on SF-539 CNS, greater than 100 µM; in the test with CAKI-1 renal, greater than 100 µM; with SN12C renal, 18.2 µM; with MALME-3M melanoma, 63.5 µM; with K-562 leukemia, greater than 100 µM. Moreover, the TGI with SNB-19 CNS is greater than 100 µM; in the test on KM12 colon it was greater than 100 µM; in the test with SNB-75 CNS it was 62.4 µM; with M14 melanoma it was greater than 100 µM.
For `Cc1ccc(S(=O)(=O)N2CCNCCN(S(=O)(=O)c3ccc(C)cc3)CCN(S(=O)(=O)c3ccc(C)cc3)CC2)cc1`, the TGI with EKVX NSCLC, in the test with SF-539 CNS, in the test with CAKI-1 renal, in the test with SN12C renal, in the test with MALME-3M melanoma and in the test on K-562 leukemia was greater than 100 µM in each case. Further, the TGI in the test with SNB-19 CNS, in the test with KM12 colon, in the test with SNB-75 CNS and with M14 melanoma was greater than 100 µM throughout.
For the molecule `CC(=O)N1c2ccccc2C(C)C1c1[nH]c2ccccc2c1C` (stereo not given), the TGI with EKVX NSCLC is greater than 100 µM; in the test with SF-539 CNS, 27.2 µM; in the test on CAKI-1 renal it was 70.6 µM; in the test with SN12C renal it was 33.9 µM; with MALME-3M melanoma, greater than 100 µM; in the test with K-562 leukemia it was greater than 100 µM. Also, the TGI in the test with SNB-19 CNS is greater than 100 µM; in the test with KM12 colon, 38.4 µM; in the test on SNB-75 CNS, 50.1 µM; in the test on M14 melanoma it was 42.5 µM.
In the case of `CCOC(=O)Cn1c(=O)c2cc(-c3ccccc3)cc3c(Cl)nc4c(OC)c(OC)cc1c4c32`, the TGI was greater than 59.2 µM in the test on EKVX NSCLC; greater than 100 µM in the test with SF-539 CNS; greater than 100 µM in the test with CAKI-1 renal; greater than 100 µM in the test on SN12C renal; 22 µM with MALME-3M melanoma; greater than 55 µM in the test with K-562 leukemia. Besides, the TGI was 55 µM with SNB-19 CNS, greater than 92.8 µM with KM12 colon, 49.6 µM with SNB-75 CNS and 32.9 µM with M14 melanoma.
On to `COc1cc2c(cc1OCCCC(=O)Nc1cc(C(=O)NCCCN(C)C)n(C)n1)N=CC1CCCN1C2=O` (stereo not given), for which the TGI in the test with EKVX NSCLC was greater than 62 µM; in the test with SF-539 CNS it was 22.1 µM; in the test on CAKI-1 renal, 50.9 µM; with SN12C renal, greater than 24.6 µM; in the test with MALME-3M melanoma it was 14.2 µM; in the test with K-562 leukemia, 3.8 µM. The TGI was greater than 37.4 µM in the test on SNB-19 CNS, greater than 100 µM in the test on KM12 colon, 22.3 µM in the test with SNB-75 CNS and greater than 27.6 µM in the test on M14 melanoma.
For `S=C(Nc1ccccn1)Nc1ccccc1Cl`, the TGI with EKVX NSCLC is greater than 55.9 µM; in the test with SF-539 CNS, greater than 100 µM; in the test on CAKI-1 renal it was greater than 100 µM; with SN12C renal, greater than 100 µM; in the test with MALME-3M melanoma, greater than 79.5 µM; with K-562 leukemia, greater than 100 µM. The TGI was greater than 31.6 µM with SNB-19 CNS, greater than 83.4 µM with KM12 colon, greater than 80.4 µM in the test with SNB-75 CNS and greater than 100 µM in the test with M14 melanoma.
Take `Clc1c(C(Cl)(Cl)Cl)nsc1N1CCCCC1`: the TGI with EKVX NSCLC worked out at 79.7 µM; with SF-539 CNS it was 68.5 µM; with CAKI-1 renal it was 55.2 µM; in the test on SN12C renal, 80.9 µM; with MALME-3M melanoma, 40.8 µM; with K-562 leukemia, 53.2 µM. Also, the TGI was 69.7 µM with SNB-19 CNS, 55.7 µM in the test on KM12 colon, 81.8 µM in the test on SNB-75 CNS and 56.4 µM in the test with M14 melanoma.
Consider `O=C(OCCC12CC3CC(CC(C3)C1)C2)c1ccc(NCc2cc(O)ccc2O)cc1`, for which the TGI in the test with EKVX NSCLC was determined as 4.88 µM; in the test on SF-539 CNS, 2.08 µM; in the test with CAKI-1 renal it was 1.11 µM; in the test on SN12C renal, 11.2 µM; in the test on MALME-3M melanoma it was 3.81 µM; in the test on K-562 leukemia it was 10.6 µM. The TGI came to 3.23 µM with SNB-19 CNS, 3.43 µM with KM12 colon, 2.99 µM with SNB-75 CNS and 3.37 µM with M14 melanoma.
As for `COc1ccc(-c2cc(-c3cc(F)c(Cl)cc3Cl)on2)cc1OC`, the TGI with EKVX NSCLC was greater than 100 µM; with SF-539 CNS, 27 µM; in the test on CAKI-1 renal, greater than 100 µM; in the test on SN12C renal, greater than 100 µM; in the test with MALME-3M melanoma, greater than 100 µM; in the test on K-562 leukemia, greater than 100 µM. Further, the TGI in the test on SNB-19 CNS, with KM12 colon, in the test with SNB-75 CNS and in the test on M14 melanoma was greater than 100 µM in each case.
In the case of `Clc1ncc(Cl)c(Cl)n1`, the TGI in the test on EKVX NSCLC came to 30.3 µM; with SF-539 CNS it was 24.6 µM; in the test on CAKI-1 renal, 3.25 µM; with SN12C renal it was 5.91 µM; in the test on MALME-3M melanoma, 3.75 µM; in the test with K-562 leukemia it was 4.08 µM. The TGI in the test on SNB-19 CNS is 10.3 µM; in the test with KM12 colon, 22.9 µM; in the test on SNB-75 CNS, 9.98 µM; with M14 melanoma, 10.6 µM.
In the case of `O=C1c2ccccc2C(=O)c2c(O)ccc(O)c21`, the TGI in the test with EKVX NSCLC, with SF-539 CNS, in the test with CAKI-1 renal, in the test on SN12C renal, in the test on MALME-3M melanoma and in the test with K-562 leukemia was greater than 100 µM in each case. For the same molecule, the TGI in the test with SNB-19 CNS, in the test with KM12 colon, in the test on SNB-75 CNS and with M14 melanoma was greater than 100 µM each time.
Regarding `COC(=O)c1cc(C(=CCC[C@H]2CC[C@@]3(C)C(CCC4C3CC[C@@]3(C)C4CC[C@@H]3C(C)CCCC(C)C)C2)c2cc(Cl)c(OC(=O)c3ccccc3)c(C(=O)OC)c2)cc(Cl)c1OC(=O)c1ccccc1` (stereo not given in full), the TGI in the test with EKVX NSCLC, in the test with SF-539 CNS, in the test on CAKI-1 renal, in the test on SN12C renal, in the test with MALME-3M melanoma and in the test on K-562 leukemia was greater than 10 µM throughout. Further, the TGI with SNB-19 CNS, in the test on KM12 colon, in the test with SNB-75 CNS and with M14 melanoma was greater than 10 µM in each case.
